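Results reflect a 48-hour exposure of cells in 96-well plates to compound at five concentrations. TGI denotes the concentration required for complete inhibition of growth.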
Legend:
Test in all cases: growth of human tumour cells (NCI), 48 h
[1] = system: NCI-H460 lung
[2] = system: OVCAR-5 ovarian
[3] = system: M19-MEL melanoma
[4] = system: SR leukemia
[5] = system: U251 CNS
[6] = system: SNB-78 CNS
[7] = system: DMS 273 small cell lung
[8] = system: SNB-75 CNS
[9] = system: COLO 205 colon
[10] = system: ACHN renal
[11] = system: SW-620 colon
[12] = system: HOP-18 NSCLC
[13] = system: RXF 393 renal
[14] = system: M14 melanoma
[15] = system: CCRF-CEM leukemia
[16] = system: IGROV1 ovarian
[17] = system: OVCAR-8 ovarian
[18] = system: SF-539 CNS
[19] = system: UO-31 renal
[20] = system: SF-268 CNS
[21] = system: EKVX NSCLC
[22] = system: NCI-H23 lung
[23] = system: OVCAR-3 ovarian
[24] = system: SK-OV-3 ovarian
[25] = system: DLD-1 colon
[26] = system: DMS 114 small cell lung
[27] = system: NCI-H226 lung
[28] = system: KM12 colon
[29] = system: LOX IMVI melanoma
[30] = system: SF-295 CNS
[31] = system: K-562 leukemia
[32] = system: LXFL 529 NSCLC
[33] = system: OVCAR-4 ovarian
[34] = system: HL-60(TB) leukemia
[35] = system: A549 NSCLC
[36] = system: HT29 colon
[37] = system: UACC-62 melanoma
[38] = system: SK-MEL-28 melanoma
[39] = system: A498 renal
[40] = system: 786-0 renal
[41] = system: TK-10 renal
[42] = system: RPMI-8226 leukemia
[43] = system: SK-MEL-5 melanoma
[44] = system: MOLT-4 leukemia
[45] = system: SNB-19 CNS
[46] = system: HOP-92 NSCLC
[47] = system: HCT-15 colon
[48] = system: SN12C renal
[49] = system: MALME-3M melanoma
[50] = system: HCC-2998 colon
[51] = system: HCT-116 colon
[52] = system: NCI-H522 lung
[53] = system: CAKI-1 renal

**Q.** Which results are given for O=C1C=C(c2[nH]c3ccccc3c2C2=CC(=O)c3ccccc3C2=O)C(=O)c2ccccc21?
**A.** TGI [1]: > 100 µM; TGI [2]: > 100 µM; TGI [3]: 35.4 µM; TGI [4]: 57.1 µM; TGI [5]: > 100 µM; TGI [6]: > 100 µM; TGI [7]: > 100 µM; TGI [8]: 57.6 µM; TGI [9]: > 100 µM; TGI [10]: > 100 µM; TGI [11]: > 100 µM; TGI [12]: > 100 µM; TGI [13]: > 100 µM; TGI [14]: > 100 µM; TGI [15]: 43.9 µM; TGI [16]: 95.6 µM; TGI [17]: > 100 µM; TGI [18]: > 100 µM; TGI [19]: > 100 µM; TGI [20]: > 100 µM; TGI [21]: > 100 µM; TGI [22]: > 100 µM; TGI [23]: 88.3 µM; TGI [24]: > 100 µM; TGI [25]: > 100 µM; TGI [26]: 36.6 µM; TGI [27]: > 100 µM; TGI [28]: > 100 µM; TGI [29]: 59 µM; TGI [30]: > 100 µM; TGI [31]: 60.1 µM; TGI [32]: > 100 µM; TGI [33]: > 100 µM; TGI [34]: 44.4 µM; TGI [35]: > 100 µM; TGI [36]: > 100 µM; TGI [37]: 71.3 µM; TGI [38]: > 100 µM; TGI [39]: > 100 µM; TGI [40]: > 100 µM; TGI [41]: > 100 µM; TGI [42]: > 100 µM; TGI [43]: > 100 µM; TGI [44]: 35.7 µM; TGI [45]: > 100 µM

**Q.** Which TGI [1] does the source give for C=CCCCCCCCC(O)C1C[C@H](O)C(CCCCC)O1 (stereo partly drawn) here?
**A.** 37.2 µM

**Q.** What about the TGI [46] of the same compound?
**A.** 30.7 µM

**Q.** And the TGI [47]?
**A.** 40 µM

**Q.** And the TGI [3]?
**A.** 35.9 µM

**Q.** And the TGI [48]?
**A.** 36 µM

**Q.** What about the TGI [5] of the same compound?
**A.** 31.3 µM

**Q.** What about the TGI [6] of the same compound?
**A.** 45.1 µM

**Q.** What about the TGI [7] of the same compound?
**A.** 32.8 µM

**Q.** And the TGI [8]?
**A.** 29.7 µM

**Q.** What about the TGI [9] of the same compound?
**A.** 34.5 µM

**Q.** What about the TGI [10] of the same compound?
**A.** 36.6 µM

**Q.** What about the TGI [11] of the same compound?
**A.** 41.7 µM

**Q.** What about the TGI [12] of the same compound?
**A.** 32.1 µM

**Q.** What about the TGI [49] of the same compound?
**A.** 33.5 µM

**Q.** What about the TGI [50] of the same compound?
**A.** 33.4 µM

**Q.** What about the TGI [13] of the same compound?
**A.** 37.7 µM

**Q.** What about the TGI [14] of the same compound?
**A.** 34.6 µM

**Q.** What about the TGI [15] of the same compound?
**A.** 41.6 µM

**Q.** And the TGI [16]?
**A.** 42.2 µM

**Q.** What about the TGI [17] of the same compound?
**A.** 40.2 µM

**Q.** And the TGI [18]?
**A.** 30.7 µM

**Q.** What about the TGI [19] of the same compound?
**A.** 31.9 µM

**Q.** What about the TGI [21] of the same compound?
**A.** 36.7 µM

**Q.** And the TGI [22]?
**A.** 36.8 µM

**Q.** And the TGI [51]?
**A.** 34.5 µM

**Q.** And the TGI [23]?
**A.** 32.7 µM

**Q.** What about the TGI [24] of the same compound?
**A.** 43.2 µM

**Q.** And the TGI [25]?
**A.** 31 µM

**Q.** What about the TGI [26] of the same compound?
**A.** 37 µM

**Q.** What about the TGI [27] of the same compound?
**A.** 29.6 µM

**Q.** And the TGI [52]?
**A.** 35.1 µM

**Q.** And the TGI [28]?
**A.** 41.3 µM

**Q.** What about the TGI [29] of the same compound?
**A.** 36.1 µM

**Q.** And the TGI [30]?
**A.** 33 µM

**Q.** What about the TGI [53] of the same compound?
**A.** 34.6 µM

**Q.** And the TGI [31]?
**A.** 47.6 µM

**Q.** And the TGI [32]?
**A.** 29 µM

**Q.** What about the TGI [34] of the same compound?
**A.** 37.4 µM

**Q.** What about the TGI [35] of the same compound?
**A.** 37.5 µM

**Q.** What about the TGI [36] of the same compound?
**A.** 35.6 µM

**Q.** And the TGI [37]?
**A.** 29.6 µM

**Q.** And the TGI [38]?
**A.** 33.7 µM

**Q.** And the TGI [39]?
**A.** 36.1 µM

**Q.** What about the TGI [40] of the same compound?
**A.** 32.2 µM

**Q.** What about the TGI [41] of the same compound?
**A.** 34.8 µM

**Q.** What about the TGI [42] of the same compound?
**A.** 43.9 µM

**Q.** What about the TGI [43] of the same compound?
**A.** 34.7 µM

**Q.** What about the TGI [44] of the same compound?
**A.** 43.6 µM

Reference: PubChem BioAssay (NCI)
